A short description of series [1]: Human liver microsome (HLM) metabolic stability assay. In kind it is in vitro ADME. The conditions noted are these: human liver microsomes. In a few lines: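 Remaining parent measured by LC/MS/MS (ESI, MRM) at 5, 15, 30 and 60 min relative to 0 min. Incubation: 1 uM compound, HLMs, NADPH-started, 37° C., 60 min total, single replicate. Slope of ln(% remaining) gives t1/2 = 0.693/slope, then CLint, CLh and % Qh.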

Series [2] deals with human soluble guanylate cyclase alpha 1 and beta 1 subunits (sGC) (Homo sapiens (Human), UniProt Q02108+Q02153). The series is described as follows: sGC cellular activator assay (cGMP, HTRF), in the presence and absence of 50% human serum. In kind it is cell-based. Conditions: CHO cells stably expressing human sGC alpha 1/beta 1, preincubated with 40 microM ODQ; cGMP by HTRF; Table 2 does not state whether with or without 50% human serum. A digest of the protocol: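 First, CHO-sGC (human α1β1) cells get 1 h ODQ at 40 microM with IBMX and 0.1% BSA. Finally, cGMP is quantified by HTRF and EC50 computed.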

The nature of a further series: physchem. Conditions: kinetic from dmso stock.
Where [3] appears, read: pH 2.2, aqueous buffer, Solubility (pH 2.2).
The mark [4] stands for this setting: pH 4.5, aqueous buffer, Solubility (pH 4.5).
Where [5] appears, read: pH 6.8, aqueous buffer, Solubility (pH 6.8).

What is called EC50 is the midpoint of the concentration-response curve. Lower therefore signals a more potent agent. One may read the solubility as the concentration that dissolves in the medium under given conditions. The low end stands for little dissolved substance, the high end for much dissolved substance.

SMILES strings stand for the structures. ≈ marks a conversion by molar mass, not a printed value.

Chain of human soluble guanylate cyclase alpha 1 and beta 1 subunits (sGC) (Q02108 whole entry partner): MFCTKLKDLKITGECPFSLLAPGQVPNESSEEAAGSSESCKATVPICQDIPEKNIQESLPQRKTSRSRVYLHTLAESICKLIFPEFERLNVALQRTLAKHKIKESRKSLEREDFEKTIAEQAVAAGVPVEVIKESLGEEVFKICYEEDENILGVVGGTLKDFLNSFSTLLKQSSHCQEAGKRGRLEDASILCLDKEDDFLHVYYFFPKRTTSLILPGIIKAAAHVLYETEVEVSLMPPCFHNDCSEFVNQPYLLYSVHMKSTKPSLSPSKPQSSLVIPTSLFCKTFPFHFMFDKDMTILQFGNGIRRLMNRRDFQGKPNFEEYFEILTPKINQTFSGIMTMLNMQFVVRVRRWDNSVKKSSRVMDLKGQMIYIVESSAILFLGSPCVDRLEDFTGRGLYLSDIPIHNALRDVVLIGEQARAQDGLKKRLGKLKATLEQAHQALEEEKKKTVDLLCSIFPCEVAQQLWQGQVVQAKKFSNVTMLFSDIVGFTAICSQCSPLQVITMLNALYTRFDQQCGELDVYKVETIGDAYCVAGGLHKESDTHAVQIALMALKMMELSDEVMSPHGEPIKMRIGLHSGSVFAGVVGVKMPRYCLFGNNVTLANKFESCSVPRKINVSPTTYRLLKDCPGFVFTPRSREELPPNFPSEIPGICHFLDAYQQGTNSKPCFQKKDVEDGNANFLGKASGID
Chain of human soluble guanylate cyclase alpha 1 and beta 1 subunits (sGC) (Q02153 whole entry): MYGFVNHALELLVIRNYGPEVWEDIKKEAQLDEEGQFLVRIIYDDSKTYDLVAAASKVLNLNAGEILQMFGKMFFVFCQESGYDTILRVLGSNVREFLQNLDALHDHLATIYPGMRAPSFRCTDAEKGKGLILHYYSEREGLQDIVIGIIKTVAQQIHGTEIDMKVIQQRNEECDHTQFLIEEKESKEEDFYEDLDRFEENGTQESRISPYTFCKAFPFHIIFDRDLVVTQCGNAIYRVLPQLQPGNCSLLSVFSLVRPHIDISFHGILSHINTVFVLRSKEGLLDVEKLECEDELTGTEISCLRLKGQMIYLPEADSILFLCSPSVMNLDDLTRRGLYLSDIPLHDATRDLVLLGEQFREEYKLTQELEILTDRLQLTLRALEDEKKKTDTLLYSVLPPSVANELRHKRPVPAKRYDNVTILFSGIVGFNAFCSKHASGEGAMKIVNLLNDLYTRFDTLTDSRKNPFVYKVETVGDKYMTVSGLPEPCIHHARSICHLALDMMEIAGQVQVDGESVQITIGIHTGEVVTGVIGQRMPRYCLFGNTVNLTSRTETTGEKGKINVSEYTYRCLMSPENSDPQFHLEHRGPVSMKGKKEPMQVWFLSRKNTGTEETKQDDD

Turning to `COC[C@H]1N(c2cccc(-c3cccc(C)c3OCc3cc(C)c4c(c3)CN(C3CCOCC3)C4)n2)C[C@@H]2C[C@@]21C(=O)O` [Compound 222], the “Metabolic stability (Qh %), % hepatic blood flow” value (“Metabolic stability (Qh %)” for short) in series [1] is recorded as less than 24%. The molecule further showed an EC50 in series [2] of 23 nM. The solubility at 24 h in “physchem” (setting [3]) came out at 132 µg/mL (≈ 227 µM); in the series “physchem” (setting [4]), 130 µg/mL (≈ 222 µM); in “physchem” (setting [5]), 119 µg/mL (≈ 203 µM).
The like results for `CO[C@H]1CN(c2cccc(-c3cc(C)ccc3OCc3ccc4c(c3C)CCN(C3CCOCC3)C4=O)n2)CC[C@H]1C(=O)O` [Compound 205] were, in that order, less than 24%, 52 nM, 109 µg/mL (≈ 182 µM), 42.6 µg/mL (≈ 71 µM) and 10.8 µg/mL (≈ 18 µM).
The like results for `CO[C@H]1CN(c2nc(-c3cc(C)ccc3OCc3ccc4c(c3C)CCN(C3CCOCC3)CC4)cs2)CC[C@H]1C(=O)O` [Compound 182] were, in that order, less than 24%, 26 nM, 120 µg/mL (≈ 198 µM), 61 µg/mL (≈ 101 µM) and 55 µg/mL (≈ 90.8 µM).
The matching figures for `COC[C@H]1N(c2nc(-c3cccc(C)c3OCc3cc(C)c4c(c3)CCN(C3COC3)C4)cs2)C[C@@H]2C[C@@]21C(=O)O` [Compound 161]: less than 24%, 7 nM, 110 µg/mL (≈ 191 µM), 62 µg/mL (≈ 108 µM) and 76 µg/mL (≈ 132 µM).
Consider `Cc1ccc(OCc2ccc3c(c2)CCN(C2CCOCC2)C3)c(-c2csc(N3CC[C@@]4(C(=O)O)C[C@H]4C3)n2)c1` [Compound 110], for which, in series [1], the “Metabolic stability (Qh %)” value is less than 24%. The molecule also returned an EC50 in series [2] of 17 nM. Besides, the values for the solubility at 24 h in “physchem” (setting [3]), in “physchem” (setting [4]) and in “physchem” (setting [5]) were 110 µg/mL (≈ 197 µM), 54 µg/mL (≈ 96.5 µM) and 0.58 µg/mL (≈ 1.04 µM), respectively.
For `Cc1ccc(OCc2ccc3c(c2C)CCN(C2CCOCC2)C3=O)c(-c2cccc(N3CC[C@@]4(C(=O)O)C[C@H]4C3)n2)c1` [Compound 202], the “Metabolic stability (Qh %)” value in series [1] came out at 62%. For the same molecule, the 50% effective concentration (EC50) in series [2] came out at 9 nM. For the same molecule, the figures for the solubility at 24 h in the series “physchem” (setting [3]), in “physchem” (setting [4]) and in “physchem” (setting [5]) were 84 µg/mL (≈ 144 µM), 10 µg/mL (≈ 17.2 µM) and 0.1 µg/mL (≈ 0.172 µM), respectively.
The like results for `CO[C@@H]1CN(c2nc(-c3cccc(C)c3OCc3ccc4c(c3C)CCN(C3COC3)C4)cs2)CC[C@@H]1C(=O)O` [Compound 174] were, in that order, less than 24%, 44 nM, 120 µg/mL (≈ 213 µM), 79 µg/mL (≈ 140 µM) and 83 µg/mL (≈ 147 µM).
The matching figures for `CO[C@H]1CN(c2cccc(-c3cccc(C)c3OCc3ccc4c(c3F)CCN(C3COC3)CC4)n2)CC[C@H]1C(=O)O` [Compound 278]: less than 24%, 6 nM, 122 µg/mL (≈ 212 µM), 85.1 µg/mL (≈ 148 µM) and 68 µg/mL (≈ 118 µM).
The like results for `Cc1ccc(OCc2cc(C)c3c(c2)CCN(C2CCOCC2)C3)c(-c2csc(N3CC[C@@]4(C(=O)O)C[C@H]4C3)n2)c1` [Compound 123] were, in that order, less than 24%, 10 nM, 120 µg/mL (≈ 209 µM), 32 µg/mL (≈ 55.8 µM) and 3.3 µg/mL (≈ 5.75 µM).
As to `CCc1cc(COc2c(C)cccc2-c2cccc(N3C[C@@H]4C[C@]4(C(=O)O)[C@H]3COC)n2)cc2c1CN(C1COC1)CC2` [Compound 54], the “Metabolic stability (Qh %)” value in series [1] was found to be 39%. Further, the EC50 in series [2] was 16 nM. Also, the solubility at 24 h was determined as 130 µg/mL (≈ 223 µM) in “physchem” (setting [3]), 90 µg/mL (≈ 154 µM) in the series “physchem” (setting [4]) and 81 µg/mL (≈ 139 µM) in the series “physchem” (setting [5]).
The like results for `CO[C@H]1CN(c2nc(-c3cccc(C)c3OCc3ccc4c(c3)C(C)(C)CN(C3CCOCC3)CC4)cs2)CC[C@H]1C(=O)O` [Compound 323] were, in that order, 45%, 2 nM, 131 µg/mL (≈ 211 µM), 84.3 µg/mL (≈ 136 µM) and 65.2 µg/mL (≈ 105 µM).
Consider `CO[C@H]1CN(c2cccc(-c3cc(C)ccc3OCc3ccc4c(c3C)CCN(C3CCOCC3)C4)n2)CC[C@H]1C(=O)O` [Compound 71], for which, in series [1], the “Metabolic stability (Qh %)” value is less than 24%. Moreover, in series [2], the EC50 stood at 110 nM. The solubility at 24 h is 130 µg/mL (≈ 222 µM) in “physchem” (setting [3]), 110 µg/mL (≈ 188 µM) in the series “physchem” (setting [4]) and 81 µg/mL (≈ 138 µM) in the series “physchem” (setting [5]).
The like results for `Cc1cccc(-c2cccc(N3CC[C@H](C(=O)O)[C@@H]4OCCC[C@H]43)n2)c1OCc1ccc2c(c1C)CCN(C1CCOCC1)CC2` [Compound 337] were, in that order, less than 24%, 130 nM, 113 µg/mL (≈ 181 µM), 80.5 µg/mL (≈ 129 µM) and 78 µg/mL (≈ 125 µM).
Turning to `CCO[C@H]1CN(c2cccc(-c3cccc(Cl)c3OCc3cc4c(c(OC)c3)CN(C3CCOCC3)CC4)n2)CC[C@H]1C(=O)O` [Compound 257], the “Metabolic stability (Qh %)” value in series [1] turned out to be 85%. In series [2], this molecule yielded a half-maximal effective concentration (EC50) of 3 nM. The solubility at 24 h in the series “physchem” (setting [3]) stood at 164 µg/mL (≈ 258 µM); in “physchem” (setting [4]) it was 88.2 µg/mL (≈ 139 µM); in “physchem” (setting [5]) it was 59 µg/mL (≈ 92.7 µM).
Regarding `CO[C@H]1CN(c2nc(-c3cccc(C)c3OCc3cc(C)c4c(c3)CCN(C3CCOCC3)C4)cs2)CC[C@H]1C(=O)O` [Compound 167], the “Metabolic stability (Qh %)” value in series [1] is less than 24%. For the same molecule, in series [2], the EC50 came to 10 nM. For the same molecule, the values for the solubility at 24 h in “physchem” (setting [3]), in the series “physchem” (setting [4]) and in “physchem” (setting [5]) were 110 µg/mL (≈ 186 µM), 84 µg/mL (≈ 142 µM) and 82 µg/mL (≈ 139 µM), respectively.
Turning to `Cc1ccc(OCc2cc(C)c3c(c2C)CCN(C2COC2)C3)c(-c2csc(N3CC[C@@]4(C(=O)O)C[C@H]4C3)n2)c1` [Compound 126], the “Metabolic stability (Qh %)” value in series [1] was less than 24%. This molecule had an EC50 in series [2] of 44 nM. In addition, the solubility at 24 h in the series “physchem” (setting [3]) worked out at 130 µg/mL (≈ 232 µM); in the series “physchem” (setting [4]), 2.8 µg/mL (≈ 5 µM); in “physchem” (setting [5]), 1.8 µg/mL (≈ 3.22 µM).
In the case of `COCc1cc(COc2c(C)cccc2-c2cccc(N3CC[C@H](C(=O)O)[C@H](OC)C3)n2)cc2c1CN(C1CCOCC1)CC2` [Compound 286], the “Metabolic stability (Qh %)” value in series [1] is less than 24%. This molecule returned a concentration giving a half-maximal response (EC50) in series [2] of 160 nM. Besides, the solubility at 24 h in the series “physchem” (setting [3]) was found to be 149 µg/mL (≈ 242 µM); in “physchem” (setting [4]), 119 µg/mL (≈ 193 µM); in “physchem” (setting [5]), 88.5 µg/mL (≈ 144 µM).
The matching figures for `COC[C@H]1N(c2cccc(-c3cccc(C)c3OCc3cnc4c(c3)CCN(C3CCOCC3)CC4)n2)C[C@@H]2C[C@@]21C(=O)O` [Compound 317]: less than 24%, 245 nM, 158 µg/mL (≈ 263 µM), 152 µg/mL (≈ 253 µM) and 139 µg/mL (≈ 232 µM).
In the case of `CO[C@@H]1CN(c2cccc(-c3cccc(C)c3OCc3cc(C)c4c(c3)CCN(C3CCOCC3)CC4)n2)CC[C@@H]1C(=O)O` [Compound 293], in series [1], the “Metabolic stability (Qh %)” value came out at 25%. In addition, in series [2], the EC50 was found to be 1 nM. The solubility at 24 h in “physchem” (setting [3]) amounted to 116 µg/mL (≈ 193 µM); in “physchem” (setting [4]) it was 82.3 µg/mL (≈ 137 µM); in “physchem” (setting [5]) it was 63.1 µg/mL (≈ 105 µM).
The like results for `Cc1ccc(OCc2ccc3c(c2C)CCN(C2CCCOC2)CC3)c(-c2csc(N3CC[C@@]4(C(=O)O)C[C@H]4C3)n2)c1` (some centres unmarked) [Compound 134] were, in that order, 53%, 11 nM, 110 µg/mL (≈ 187 µM), 8.5 µg/mL (≈ 14.5 µM) and 0.95 µg/mL (≈ 1.62 µM).
The matching figures for `CO[C@H]1CN(c2cccc(-c3cc(C)ccc3OCc3ccc4c(c3C)CCN(C3CCOCC3)CC4)n2)CC[C@H]1C(=O)O` [Compound 73]: 28%, 57 nM, 110 µg/mL (≈ 183 µM), 93 µg/mL (≈ 155 µM) and 69 µg/mL (≈ 115 µM).
The matching figures for `CO[C@@H]1CN(c2cccc(-c3cccc(C)c3OCc3cc(C)c4c(c3)CCN(C3COC3)CC4)n2)CC[C@@H]1C(=O)O` [Compound 291]: less than 24%, 2 nM, 128 µg/mL (≈ 224 µM), 84.7 µg/mL (≈ 148 µM) and 62.3 µg/mL (≈ 109 µM).
With `CO[C@@H]1CN(c2nc(-c3cccc(Cl)c3OCc3ccc4c(c3)[C@@H](C)CN(C3CCOCC3)CC4)cs2)CC[C@@H]1C(=O)O` [Compound 332], the “Metabolic stability (Qh %)” value in series [1] was less than 24%. Also, the half-maximal effective concentration (EC50) in series [2] turned out to be 15 nM. The results for the solubility at 24 h in “physchem” (setting [3]), in the series “physchem” (setting [4]) and in the series “physchem” (setting [5]) were 127 µg/mL (≈ 202 µM), 86.6 µg/mL (≈ 138 µM) and 76.8 µg/mL (≈ 123 µM), respectively.
The matching figures for `CCO[C@H]1CN(c2cccc(-c3cc(C)ccc3OCc3cc4c(c(OC)c3)CN(C3CCOCC3)CC4)n2)CC[C@H]1C(=O)O` [Compound 235]: 50%, 680 nM, 128 µg/mL (≈ 208 µM), 127 µg/mL (≈ 206 µM) and 119 µg/mL (≈ 193 µM).
The like results for `Cc1ccc(OCc2cc(C)c3c(c2)CCN(C2CCOCC2)C3)c(-c2csc(N3CC[C@H](C(=O)O)[C@H](C)C3)n2)c1` [Compound 236] were, in that order, less than 24%, 66 nM, 141 µg/mL (≈ 245 µM), 131 µg/mL (≈ 228 µM) and 129 µg/mL (≈ 225 µM).
